System: compound-treated mice
Assay: Neuropharmacological assay (SmartCube): behavioral activity signature and minimal effective dose
Format: in vivo
Conditions: for minimal effective dose: Mus musculus, ip, MED = dose having 50% or more total activity, read-out: Potency: minimal effective dose (MED), binned; for AD: ADHD (probability of activity signature) / AG: analgesic (probability of activity signature) / AX: anxiolytic (probability of activity signature) / CE: cognitive enhancer (probability of activity signature) / DP: anti-depressant (probability of activity signature) / MS: mood stabilizer (probability of activity signature) / PS: anti-psychotic (probability of activity signature) / SD: sedative hypnotic (probability of activity signature) / UN: uncharacterized CNS activity (probability of activity signature): i.p. 15 min before test, most efficacious dose(s)
How it was run: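 Mice dosed i.p. 15 min before test, compound in N-methyl-2-pyrrolidone/PEG/propylene glycol, 3 doses; video-captured behavior matched to reference-drug signatures, giving per-class probabilities at most efficacious dose. MED from doses typically 0.3–30 mpk, defined as lowest dose with ≥50% total activity.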

Row | Structure (SMILES) | minimal effective dose [mg/kg] | AD: ADHD (probability of activity signature) | AG: analgesic (probability of activity signature) | AX: anxiolytic (probability of activity signature) | CE: cognitive enhancer (probability of activity signature) | DP: anti-depressant (probability of activity signature) | MS: mood stabilizer (probability of activity signature) | PS: anti-psychotic (probability of activity signature) | SD: sedative hypnotic (probability of activity signature) | UN: uncharacterized CNS activity (probability of activity signature)
1 | C[C@H]1OCc2c(F)cccc2[C@@H]1N.Cl [Example 214] | 3 to 10 | ++ (5% ≤ ++ <25%) | ++ (5% ≤ ++ <25%) | ++ (5% ≤ ++ <25%) | ++ (5% ≤ ++ <25%) | ++ (5% ≤ ++ <25%) | + (LOQ ≤ + <5%) | ++ (5% ≤ ++ <25%) | ++ (5% ≤ ++ <25%) | ++++ (50% ≤ ++++)
2 | C[C@@H]1OCc2c(F)cccc2[C@@H]1N.Cl [Example 215] | 3 to 10 | + (LOQ ≤ + <5%) | ++ (5% ≤ ++ <25%) | +++ (25% ≤ +++ <50%) | ++ (5% ≤ ++ <25%) | ++ (5% ≤ ++ <25%) | + (LOQ ≤ + <5%) | ++ (5% ≤ ++ <25%) | ++ (5% ≤ ++ <25%) | ++++ (50% ≤ ++++)
3 | C[C@H]1OCc2cccc(F)c2[C@@H]1N.Cl [Example 216] | 3 to 10 | + (LOQ ≤ + <5%) | ++ (5% ≤ ++ <25%) | ++ (5% ≤ ++ <25%) | + (LOQ ≤ + <5%) | ++ (5% ≤ ++ <25%) | + (LOQ ≤ + <5%) | + (LOQ ≤ + <5%) | + (LOQ ≤ + <5%) | ++++ (50% ≤ ++++)
4 | C[C@@H]1OCc2cccc(F)c2[C@@H]1N.Cl [Example 217] | 10 to 30 | + (LOQ ≤ + <5%) | + (LOQ ≤ + <5%) | +++ (25% ≤ +++ <50%) | ++ (5% ≤ ++ <25%) | ++ (5% ≤ ++ <25%) | + (LOQ ≤ + <5%) | ++ (5% ≤ ++ <25%) | + (LOQ ≤ + <5%) | ++++ (50% ≤ ++++)
5 | CCc1ccc2c(c1)[C@H](N)[C@H](C)OC2.Cl [Example 219] | 3 to 10 | + (LOQ ≤ + <5%) | ++ (5% ≤ ++ <25%) | ++ (5% ≤ ++ <25%) | ++ (5% ≤ ++ <25%) | + (LOQ ≤ + <5%) | + (LOQ ≤ + <5%) | + (LOQ ≤ + <5%) | + (LOQ ≤ + <5%) | ++++ (50% ≤ ++++)
6 | CCc1ccc2c(c1)[C@H](N)[C@@H](C)OC2.Cl [Example 220] | 3 to 10 | + (LOQ ≤ + <5%) | ++ (5% ≤ ++ <25%) | ++++ (50% ≤ ++++) | ++ (5% ≤ ++ <25%) | + (LOQ ≤ + <5%) | + (LOQ ≤ + <5%) | + (LOQ ≤ + <5%) | + (LOQ ≤ + <5%) | ++++ (50% ≤ ++++)
7 | Cc1ccc2c(c1)[C@@H](C)OC[C@H]2N [Example 221] | 3 to 10 | + (LOQ ≤ + <5%) | + (LOQ ≤ + <5%) | ++ (5% ≤ ++ <25%) | + (LOQ ≤ + <5%) | ++ (5% ≤ ++ <25%) | + (LOQ ≤ + <5%) | ++ (5% ≤ ++ <25%) | + (LOQ ≤ + <5%) | ++++ (50% ≤ ++++)
8 | Cc1ccc2c(c1)[C@H](C)OC[C@H]2N [Example 222] | 3 to 10 | + (LOQ ≤ + <5%) | + (LOQ ≤ + <5%) | ++ (5% ≤ ++ <25%) | + (LOQ ≤ + <5%) | + (LOQ ≤ + <5%) | + (LOQ ≤ + <5%) | + (LOQ ≤ + <5%) | + (LOQ ≤ + <5%) | ++++ (50% ≤ ++++)
9 | CC(C)C[C@@H]1OCc2ccccc2[C@@H]1N [Example 223] | 3 to 10 | + (LOQ ≤ + <5%) | + (LOQ ≤ + <5%) | ++ (5% ≤ ++ <25%) | + (LOQ ≤ + <5%) | ++ (5% ≤ ++ <25%) | + (LOQ ≤ + <5%) | + (LOQ ≤ + <5%) | ++ (5% ≤ ++ <25%) | +++ (25% ≤ +++ <50%)
10 | CC(C)C[C@H]1OCc2ccccc2[C@@H]1N [Example 224] | 10 to 30 | + (LOQ ≤ + <5%) | ++ (5% ≤ ++ <25%) | ++ (5% ≤ ++ <25%) | +++ (25% ≤ +++ <50%) | + (LOQ ≤ + <5%) | + (LOQ ≤ + <5%) | + (LOQ ≤ + <5%) | ++ (5% ≤ ++ <25%) | ++ (5% ≤ ++ <25%)
11 | Cc1ccc(Cl)c2c1[C@H](N)[C@H](C)OC2.Cl [Example 225] | 3 to 10 | + (LOQ ≤ + <5%) | ++ (5% ≤ ++ <25%) | ++ (5% ≤ ++ <25%) | ++ (5% ≤ ++ <25%) | ++ (5% ≤ ++ <25%) | + (LOQ ≤ + <5%) | ++ (5% ≤ ++ <25%) | ++ (5% ≤ ++ <25%) | ++++ (50% ≤ ++++)
12 | Cc1cccc2c1[C@H](N)CO[C@@H]2C [Example 226] | 10 to 30 | + (LOQ ≤ + <5%) | + (LOQ ≤ + <5%) | ++ (5% ≤ ++ <25%) | ++ (5% ≤ ++ <25%) | ++ (5% ≤ ++ <25%) | + (LOQ ≤ + <5%) | +++ (25% ≤ +++ <50%) | + (LOQ ≤ + <5%) | ++ (5% ≤ ++ <25%)
13 | Cc1cccc2c1[C@H](N)CO[C@H]2C [Example 227] | 3 to 10 | + (LOQ ≤ + <5%) | ++ (5% ≤ ++ <25%) | ++ (5% ≤ ++ <25%) | + (LOQ ≤ + <5%) | + (LOQ ≤ + <5%) | + (LOQ ≤ + <5%) | ++ (5% ≤ ++ <25%) | + (LOQ ≤ + <5%) | ++++ (50% ≤ ++++)
14 | C[C@@H]1OCc2ccc(C(F)(F)F)cc2[C@@H]1N.Cl [Example 228] | 10 to 30 | + (LOQ ≤ + <5%) | ++ (5% ≤ ++ <25%) | ++ (5% ≤ ++ <25%) | + (LOQ ≤ + <5%) | ++ (5% ≤ ++ <25%) | + (LOQ ≤ + <5%) | ++ (5% ≤ ++ <25%) | + (LOQ ≤ + <5%) | +++ (25% ≤ +++ <50%)
15 | C[C@H]1OCc2ccc(C(F)(F)F)cc2[C@@H]1N.Cl [Example 229] | 3 to 10 | + (LOQ ≤ + <5%) | + (LOQ ≤ + <5%) | ++ (5% ≤ ++ <25%) | ++ (5% ≤ ++ <25%) | ++ (5% ≤ ++ <25%) | + (LOQ ≤ + <5%) | ++ (5% ≤ ++ <25%) | + (LOQ ≤ + <5%) | +++ (25% ≤ +++ <50%)

From patent US11077090B2, “Compounds and compositions and uses thereof” (Sunovion Pharmaceuticals Inc., priority 2016, dated 2021)
